Reference: patent publication US20150246024A1 (priority 2012, published 2015)
pIC50: −log10 of the molar value. Values after ≈ are worked out from the molar mass of the structure shown. “Also recorded” adds a separate entry of the source. Read-outs that look alike come from different tables or passages of the source.

Tests used:
[1] = biological target: Recombinant S. aureus LtaSSA expressed in E. coli (Staphylococcus aureus, UniProt Q2G093); format: cell-based
S. aureus RN4220 [2] = experiment: Growth of S. aureus culture with sub-lethal compound (OD600); details: 1 μM compound, until control culture OD600 1.0
S. aureus - MRSA USA300 = experiment: microbe, parasite or virus in culture; format: cell-based
E. faecium - VRE TX0016 = experiment: microbe, parasite or virus in culture; format: cell-based
E. faecalis - VRE V583 = experiment: microbe, parasite or virus in culture; format: cell-based
[3] = test system: LTA production in S. aureus; experiment: Inhibition of LTA synthesis in S. aureus (immunoblot); details: sub-lethal concentrations of compound
B. anthracis Sterne = experiment: microbe, parasite or virus in culture; format: cell-based
S. aureus RN4220 (MSSA) = experiment: microbe, parasite or virus in culture; format: cell-based
S. aureus RN4220 [4] = experiment: High throughput screen for growth inhibitors, 384-well; format: cell-based; details: Staphylococcus aureus, positive control, vs medium alone
Procedure: The antibiotic sensitive strain S. aureus RN4220 was used to screen for small molecule growth inhibitors in a high throughput-screening assay using 384-well microplates. Cation-adjusted Hinton Mueller II broth supplemented with 0.005% Tween-80 was inoculated with a single colony of S. aureus RN4220. Following overnight incubation, the culture was diluted 1:100 in fresh medium and incubation was continued until the bacterial suspension reached an optical density at 600 nm (OD600) of 0.6 corresponding to a bacterial titer of 5×10^8 colony forming units (CFU) per ml. An aliquot of this culture was diluted 1:400 with fresh medium and stored on ice until it could be dispensed in 384-well plates. Small-scale experiments were conducted to determine the Z′-factor (1-[(3SD^−)+(3SD^+)/(Ave^−)−(Ave^+)]) used commonly for quality assessment of raw data sets generated in high-throughput screening. In this formula, (SD^+/−) and (Ave^+/−) represent standard deviation and average of positive and negative controls. […] The OD600 in each well was recorded after 20 hours incubation. […] After 20 hours, the OD600 was measured using a plate reader in absorbance mode. […]
S. aureus lacking the ltaS gene is unable to grow at temperatures […]. […] The quality of the screen was assessed for every assay plate with the Z′-factor, a measure for data variability within the dynamic range of the assay (Zhang et al. 1999). […]

[5] = 37° C., 18-22 hours, OD600, sigmoidal fit, read-out: IC50

Recombinant S. aureus LtaSSA expressed in E. coli, sequence (Q2G093 whole entry): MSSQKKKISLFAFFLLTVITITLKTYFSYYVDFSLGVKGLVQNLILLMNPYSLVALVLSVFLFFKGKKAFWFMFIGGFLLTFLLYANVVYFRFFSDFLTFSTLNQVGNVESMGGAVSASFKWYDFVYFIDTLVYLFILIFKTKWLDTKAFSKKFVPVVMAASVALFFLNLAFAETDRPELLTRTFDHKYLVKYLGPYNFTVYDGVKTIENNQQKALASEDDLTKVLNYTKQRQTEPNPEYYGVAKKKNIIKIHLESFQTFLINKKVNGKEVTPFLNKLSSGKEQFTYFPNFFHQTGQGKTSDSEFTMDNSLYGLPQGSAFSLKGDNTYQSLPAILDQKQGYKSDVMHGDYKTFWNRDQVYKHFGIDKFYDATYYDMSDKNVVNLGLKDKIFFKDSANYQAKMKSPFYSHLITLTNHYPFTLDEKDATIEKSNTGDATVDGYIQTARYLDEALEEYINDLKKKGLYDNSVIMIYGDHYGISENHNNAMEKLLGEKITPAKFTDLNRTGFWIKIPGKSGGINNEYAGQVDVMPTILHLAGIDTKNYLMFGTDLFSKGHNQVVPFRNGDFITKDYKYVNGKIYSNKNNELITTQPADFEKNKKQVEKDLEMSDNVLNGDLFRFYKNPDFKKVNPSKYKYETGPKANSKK

Row | SMILES | pIC50 (B. anthracis Sterne; Bacillus anthracis) | MIC (B. anthracis Sterne; Bacillus anthracis) [µM] | pIC50 (S. aureus RN4220 (MSSA); Staphylococcus aureus, MSSA) | MIC (S. aureus RN4220 (MSSA); Staphylococcus aureus, MSSA) [µM] | further results
1 | COc1cccc(-c2nnc(NC(=O)c3ccc(S(=O)(=O)N(Cc4ccccc4)C(C)C)cc3)o2)c1 [4-(N-benzyl-N-isopropylsulfamoyl)-N-(5-(3-methoxyphenyl)-1,3,4-oxadiazol-2-yl)benzamide] | 6.00 | 1.6 (≈ 0.811 µg/mL) | 5.92 | 3.1 (≈ 1.57 µg/mL) | production of LTA promoted by plasmid encoded LtaSSA [1]: abrogated; reduced growth of staphylococci (S. aureus RN4220 [2]): 75%; pIC50 (S. aureus - MRSA USA300; Staphylococcus aureus): 5.89; MIC (S. aureus - MRSA USA300; Staphylococcus aureus): 3.1 µM (≈ 1.57 µg/mL); pIC50 (E. faecium - VRE TX0016; Enterococcus faecium, VRE): 5.14; MIC (E. faecium - VRE TX0016; Enterococcus faecium, VRE): 50 µM (≈ 25.3 µg/mL); pIC50 (E. faecalis - VRE V583; Enterococcus faecalis, VRE): 4.73; MIC (E. faecalis - VRE V583; Enterococcus faecalis, VRE): 50 µM (≈ 25.3 µg/mL); LTA production (immunoblot α-LTA) [3]: affect the production of LTA; also recorded: reduced
2 | COc1cc(OC)cc(-c2nnc(NC(=O)c3ccc(S(=O)(=O)N(C)c4ccccc4)cc3)o2)c1 [Compound 1650-I01, N-(5-(3,5-dimethoxyphenyl)-1,3,4-oxadiazol-2-yl)-4-(N-methyl-N-henylsulfamoyl)benzamide] | – | – | – | – | production of LTA promoted by plasmid encoded LtaSSA [1]: abrogated; reduced growth of staphylococci (S. aureus RN4220 [2]): 50%; MIC (S. aureus - MRSA USA300; 37° C., 18-22 hours, OD600): 6.2 µM (≈ 3.07 µg/mL); pIC50 (S. aureus - MRSA USA300; [5]): 5.77; MIC (E. faecium - VRE TX0016; 37° C., 18-22 hours, OD600): 100.0 µM (≈ 49.5 µg/mL); pIC50 (E. faecium - VRE TX0016; [5]): 4.84; MIC (E. faecalis - VRE V583; 37° C., 18-22 hours, OD600): 100.0 µM (≈ 49.5 µg/mL); pIC50 (E. faecalis - VRE V583; [5]): 4.25; LTA production (immunoblot α-LTA) [3]: affect the production of LTA; also recorded: reduced; MIC (B. anthracis Sterne; 37° C., 18-22 hours, OD600): 3.1 µM (≈ 1.53 µg/mL); pIC50 (B. anthracis Sterne; [5]): 5.82; MIC (S. aureus RN4220 (MSSA); 37° C., 18-22 hours, OD600): 3.1 µM (≈ 1.53 µg/mL); pIC50 (S. aureus RN4220 (MSSA); [5]): 5.89
3 | CC1CCCCN1S(=O)(=O)c1ccc(C(=O)Nc2nnc(-c3cccs3)o2)cc1 (stereo not shown) [Compound 1650-M01, 4-(2-methylpiperidin-1-ylsulfonyl)-N-(5-(thiophen-2-yl)-1,3,4-oxadiazol-2-yl)benzamide] | 4.95 | 25 (≈ 10.8 µg/mL) | 5.15 | 25 (≈ 10.8 µg/mL) | production of LTA promoted by plasmid encoded LtaSSA [1]: abrogated; MIC (S. aureus - MRSA USA300; 37° C., 18-22 hours, OD600): 25.0 µM (≈ 10.8 µg/mL); pIC50 (S. aureus - MRSA USA300; Staphylococcus aureus): 5.08; MIC (S. aureus - MRSA USA300; Staphylococcus aureus): 25 µM (≈ 10.8 µg/mL); pIC50 (E. faecium - VRE TX0016; Enterococcus faecium, VRE): 4.71; MIC (E. faecium - VRE TX0016; Enterococcus faecium, VRE): 100 µM (≈ 43.3 µg/mL); pIC50 (E. faecalis - VRE V583; Enterococcus faecalis, VRE): 4.44; MIC (E. faecalis - VRE V583; Enterococcus faecalis, VRE): 100 µM (≈ 43.3 µg/mL)
4 | CC(=O)COC(=O)Cc1coc2ccc3ccccc3c12 [Compound 1771-1, 2-oxopropyl 2-(naphtho[2,1-b]furan-1-yl)acetate] | 3.77 | > 400 | < 3.40 | > 400 | –
5 | CNC(=O)COC(=O)Cc1coc2ccc3ccccc3c12 [Compound 1771-2, 2-(methylamino)-2-oxoethyl 2-(naphtho[2,1-b]furan-1-yl)acetate] | < 3.40 | > 400 | < 3.40 | > 400 | –
6 | CC(NC(=O)COC(=O)Cc1coc2ccc3ccccc3c12)c1ccccc1 (stereo not shown) [Compound 1771-3, 2-oxo-2-(1-phenylethylamino)ethyl 2-(naphtho[2,1-b]furan-1-yl)acetate] | < 3.40 | > 400 | < 3.40 | > 400 | –
7 | O=C(COC(=O)Cc1ccccc1)Nc1nnc(-c2ccccc2)o1 [Compound 1771-4, 2-oxo-2-(5-phenyl-1,3,4-oxadiazol-2-ylamino)ethyl 2-phenylacetate] | 3.65 | > 400 | 3.62 | > 400 | –
8 | O=C(COC(=O)Cc1c[nH]c2ccccc12)Nc1nnc(-c2ccccc2)o1 [Compound 1771-5, 2-oxo-2-(5-phenyl-1,3,4-oxadiazol-2-ylamino)ethyl 2-(1H-indol-3-yl)acetate] | 4.06 | 200 (≈ 75.3 µg/mL) | 4.07 | > 400 | –
9 | Cc1cc2occ(CC(=O)OCC(=O)Nc3nnc(-c4ccccc4)o3)c2cc1C [Compound 1771-6, 2-oxo-2-(5-phenyl-1,3,4-oxadiazol-2-ylamino)ethyl 2-(5,6-dimethylbenzofuran-3-yl)acetate] | 4.83 | 25 (≈ 10.1 µg/mL) | 4.82 | 50 (≈ 20.3 µg/mL) | –
10 | O=C(COC(=O)Cc1coc2cc3c(cc12)CCC3)Nc1nnc(-c2ccccc2)o1 [Compound 1771-7, 2-oxo-2-(5-phenyl-1,3,4-oxadiazol-2-ylamino)ethyl 2-(6,7-dihydro-5H-indeno[5,6-b]furan-3-yl)acetate] | 4.62 | 50 (≈ 20.9 µg/mL) | 4.56 | 50 (≈ 20.9 µg/mL) | –
11 | O=C(N[C@H](CO)[C@H](O)c1ccc([N+](=O)[O-])cc1)C(Cl)Cl [chloramphenicol] | – | – | – | – | inhibition at 80 µM (S. aureus RN4220 [4]): 100%
